Experimental findings from patent US10471046B2, “Method for treating, preventing, or reducing the risk of skin infection” (Melinta Subsidiary Corp., priority 2014, dated 2019) are described below.

In brackets after ≈: the same amount, converted by molar mass.

This experiment deals with S. aureus. The experiment in a line: Minimum inhibitory concentrations (MICs) for S. aureus of exemplary compounds (Table 2). In kind it is cell-based. Conditions: Staphylococcus aureus, minimum inhibitory concentrations for S. aureus; read-out: MICs. The essentials:
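Growth of S. aureus in media with or without compound, by broth microdilution in microtiter trays following NCCLS M7-A5 guidelines. Values are MICs in μg/mL.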

As to `CC(=O)NC[C@H]1CN(c2ccc(-c3ccc(CNCc4cc(C)c(C)o4)cc3)c(F)c2)C(=O)O1` [Compound 4085, N-[3-(4′-{[(4,5-Dimethyl-furan-2-ylmethyl)-amino]-methyl}-2-fluoro-biphenyl-4-yl)-2-oxo-oxazolidin-5-(S)-ylmethyl]-acetamide], the MIC was found to be 4 µg/mL (≈ 8.59 µM).
Consider `CC(=O)NC[C@H]1CN(c2ccc(-c3ccc(CNCc4ccsc4)cc3)c(F)c2)C(=O)O1` [Compound 4086, N-[3-(2-Fluoro-4′-{[(thiophen-3-ylmethyl)-amino]-methyl}-biphenyl-4-yl)-2-oxo-oxazolidin-5-(S)-ylmethyl]-acetamide], for which the MIC is 4 µg/mL (≈ 8.82 µM).
On to `CC(=O)NC[C@H]1CN(c2ccc(-c3ccc(CNCCc4ccccn4)cc3)c(F)c2)C(=O)O1` [Compound 4087, N-(3-{2-Fluoro-4′-[(2-pyridin-2-yl-ethylamino)-methyl]-biphenyl-4-yl}-2-oxo-oxazolidin-5-(S)-ylmethyl)-acetamide], for which the MIC was 4 µg/mL (≈ 8.65 µM).
As to `CC(=O)NC[C@H]1CN(c2ccc(-c3ccc(CNCc4ccco4)c(F)c3F)c(F)c2)C(=O)O1` [Compound 4088, N-[2-Oxo-3-(2,2′,3′-trifluoro-4′-{[(furan-2-ylmethyl)-amino]-methyl}-biphenyl-4-yl)-oxazolidin-5-(S)-ylmethyl]-acetamide], the MIC is 2 µg/mL (≈ 4.22 µM).
To `CC(=O)NC[C@H]1CN(c2ccc(-c3ccc(CNCc4ccncc4)c(F)c3F)c(F)c2)C(=O)O1` [Compound 4089, N-[2-Oxo-3-(2,2′,3′-trifluoro-4′-{[(pyridin-4-ylmethyl)-amino]-methyl}-biphenyl-4-yl)-oxazolidin-5-(S)-ylmethyl]-acetamide] belongs 2 µg/mL (≈ 4.13 µM); to `CC(=O)NC[C@H]1CN(c2ccc(-c3ccc(CNCc4ccccn4)c(F)c3F)c(F)c2)C(=O)O1` [Compound 4090, N-[2-Oxo-3-(2,2′,3′-trifluoro-4′-{[(pyridin-2-ylmethyl)-amino]-methyl}-biphenyl-4-yl)-oxazolidin-5-(S)-ylmethyl]-acetamide], 4 µg/mL (≈ 8.26 µM); to `CC(=O)NC[C@H]1CN(c2ccc(-c3ccc(CNCc4ncc[nH]4)cc3)c(F)c2)C(=O)O1` [Compound 4091, N-[3-(2-Fluoro-4′-{[(1H-imidazol-2-ylmethyl)-amino]-methyl}-biphenyl-4-yl)-2-oxo-oxazolidin-5-(S)-ylmethyl]-acetamide], 8 µg/mL (≈ 18.3 µM).
On to `CC(=O)NC[C@H]1CN(c2ccc(-c3ccc(CNCc4nc5ccccc5[nH]4)cc3)c(F)c2)C(=O)O1` [Compound 4092, N-[3-(4′-{[(1H-Benzoimidazol-2-ylmethyl)-amino]-methyl}-2-fluoro-biphenyl-4-yl)-2-oxo-oxazolidin-5-(S)-ylmethyl]-acetamide], for which the MIC was 4 µg/mL (≈ 8.2 µM).
For the molecule `CC(=O)NC[C@H]1CN(c2ccc(-c3ccc(CNCc4ccc(S(N)(=O)=O)cc4)cc3)c(F)c2)C(=O)O1` [Compound 4093, N-(3-{2-Fluoro-4′-[(4-sulfamoyl-benzylamino)-methyl]-biphenyl-4-yl}-2-oxo-oxazolidin-5-(S)-ylmethyl)-acetamide], the MIC was 8 µg/mL (≈ 15.2 µM).
Regarding `CC(=O)NC[C@H]1CN(c2ccc(-c3ccc(CNCCc4ccc(S(N)(=O)=O)cc4)cc3)c(F)c2)C(=O)O1` [Compound 4094, N-[3-(2-Fluoro-4′-{[2-(4-sulfamoyl-phenyl)-ethylamino]-methyl}-biphenyl-4-yl)-2-oxo-oxazolidin-5-(S)-ylmethyl]-acetamide], the MIC came to 2 µg/mL (≈ 3.7 µM).
The result for `CC(=O)NC[C@H]1CN(c2ccc(-c3ccc(CNCc4c(CO)cnc(C)c4O)cc3)c(F)c2)C(=O)O1` [Compound 4095, N-[3-(2-Fluoro-4′-{[(3-hydroxy-5-hydroxymethyl-2-methyl-pyridin-4-ylmethyl)-amino]-methyl}-biphenyl-4-yl)-2-oxo-oxazolidin-5-(S)-ylmethyl]-acetamide] reads 4 µg/mL (≈ 7.87 µM); that for `CC(=O)NC[C@H]1CN(c2ccc(-c3ccc(CNCCc4scnc4C)cc3)c(F)c2)C(=O)O1` [Compound 4096, N-[3-(2-Fluoro-4′-{[2-(4-methyl-thiazol-5-yl)-ethylamino]-methyl}-biphenyl-4-yl)-2-oxo-oxazolidin-5-(S)-ylmethyl]-acetamide], 4 µg/mL (≈ 8.29 µM); that for `CC(=O)NC[C@H]1CN(c2ccc(-c3ccc(C(=N)NCc4ccccn4)cc3)c(F)c2)C(=O)O1` [Compound 4097, N-{3-[2-Fluoro-4′-(N-pyridin-2-ylmethyl-carbamimidoyl)-biphenyl-4-yl]-2-oxo-oxazolidin-5-(S)-ylmethyl}-acetamide], 16 µg/mL (≈ 34.7 µM).
To `COc1ccc2[nH]cc(CNCc3ccc(-c4ccc(N5C[C@H](CNC(C)=O)OC5=O)cc4F)cc3)c2c1` [Compound 4098, N-[3-(2-Fluoro-4′-{[(5-methoxy-1H-indol-3-ylmethyl)-amino]-methyl}-biphenyl-4-yl)-2-oxo-oxazolidin-5-(S)-ylmethyl]-acetamide] belongs 2 µg/mL (≈ 3.87 µM); to `CC(=O)NC[C@H]1CN(c2ccc(-c3ccc(CNCc4sccc4C)cc3)c(F)c2)C(=O)O1` [Compound 4099, N-[3-(2-Fluoro-4′-{[(3-methyl-thiophen-2-ylmethyl)-amino]-methyl}-biphenyl-4-yl)-2-oxo-oxazolidin-5-(S)-ylmethyl]-acetamide], 4 µg/mL (≈ 8.55 µM); to `CC(=O)NC[C@H]1CN(c2ccc(-c3ccc(CNCc4cccn4S(=O)(=O)c4ccccc4)cc3)c(F)c2)C(=O)O1` [Compound 4100, N-[3-(4′-{[(1-Benzenesulfonyl-1H-pyrrol-2-ylmethyl)-amino]-methyl}-2-fluoro-biphenyl-4-yl)-2-oxo-oxazolidin-5-(S)-ylmethyl]-acetamide], 4 µg/mL (≈ 6.94 µM).
As to `CC(=O)NC[C@H]1CN(c2ccc(-c3ccc(CNCc4c[nH]c(=O)[nH]c4=O)cc3)c(F)c2)C(=O)O1` [Compound 4101, N-[3-(4′-{[(2,4-Dioxo-1,2,3,4-tetrahydro-pyrimidin-5-ylmethyl)-amino]-methyl}-2-fluoro-biphenyl-4-yl)-2-oxo-oxazolidin-5-(S)-ylmethyl]-acetamide], the MIC is 1 µg/mL (≈ 2.08 µM).
In the case of `CC(=O)NC[C@H]1CN(c2ccc(-c3ccc(C(=O)NCc4ccncc4)cc3)c(F)c2)C(=O)O1` [Compound 4102, 4′-[5-(S)-(Acetylamino-methyl)-2-oxo-oxazolidin-3-yl]-2′-fluoro-biphenyl-4-carboxylic acid (pyridin-4-ylmethyl)-amide], the MIC was 2 µg/mL (≈ 4.32 µM).
To `CC(=O)NC[C@H]1CN(c2ccc(-c3ccc(CNCc4cc(C)oc4C)cc3)c(F)c2)C(=O)O1` [Compound 4103, N-[3-(4′-{[(2,5-Dimethyl-furan-3-ylmethyl)-amino]-methyl}-2-fluoro-biphenyl-4-yl)-2-oxo-oxazolidin-5-(S)-ylmethyl]-acetamide] belongs 8 µg/mL (≈ 17.2 µM); to `CC(=O)NC[C@H]1CN(c2ccc(-c3ccc(CNCc4c(-c5ccccc5)noc4C)cc3)c(F)c2)C(=O)O1` [Compound 4104, N-[3-(2-Fluoro-4′-{[(5-methyl-3-phenyl-isoxazol-4-ylmethyl)-amino]-methyl}-biphenyl-4-yl)-2-oxo-oxazolidin-5-(S)-ylmethyl]-acetamide], 0.25 µg/mL (≈ 0.473 µM).
Take `CC(=O)NC[C@H]1CN(c2ccc(-c3ccc(CNCc4cc(C)oc4C(F)(F)F)cc3)c(F)c2)C(=O)O1` [Compound 4105, N-[3-(2-Fluoro-4′-{[(5-methyl-2-trifluoromethyl-furan-3-ylmethyl)-amino]-methyl}-biphenyl-4-yl)-2-oxo-oxazolidin-5-(S)-ylmethyl]-acetamide]: the MIC was 0.5 µg/mL (≈ 0.962 µM).
